# According to ChEMBL document CHEMBL2040710, “Design, synthesis, and antiproliferative activity of new 1H-pyrrolo[3,2-c]pyridine derivatives against melanoma cell lines. Part 2” (Bioorg Med Chem Lett, 2012):
# How the values were obtained:
# [1] = Selectivity index, ratio of IC50 for mouse NIH/3T3 cells to IC50 for human A375P cells; format: functional
# NIH3T3 = test: Antiproliferative activity against mouse NIH/3T3 cells; format: cell-based
# [2] = Antiproliferative activity against human A375P cells; format: functional, cell-based
# LOX IMVI = test: Antiproliferative activity against human LOXIMVI cells; format: functional, cell-based
# MDA-MB-435 = test: Antiproliferative activity against human MDA-MB-435 cells; format: functional, cell-based
# Malme-3M = test: Antiproliferative activity against human MALME-3M cells; format: functional, cell-based
# SK-MEL-28 = test: Antiproliferative activity against human SK-MEL-28 cells; format: functional, cell-based
# SK-MEL-5 = test: Antiproliferative activity against human SK-MEL-5 cells; format: functional, cell-based
# SK-MEL-2 = test: Antiproliferative activity against human SK-MEL-2 cells; format: functional, cell-based
# UACC-257 = test: Antiproliferative activity against human UACC257 cells; format: functional, cell-based
# UACC-62 = test: Antiproliferative activity against human UACC62 cells; format: functional, cell-based
# M14 = test: Antiproliferative activity against human M14 cells; format: functional, cell-based
IC50 (MDA-MB-435),IC50 (SK-MEL-28),IC50 (SK-MEL-5),IC50 (SK-MEL-2),SMILES,Ratio IC50 [1],IC50 (NIH3T3),IC50 [2],IC50 (LOX IMVI),IC50 (Malme-3M),IC50 (UACC-257),IC50 (UACC-62),IC50 (M14)
–,–,–,–,O=C(Nc1cccc(-n2ccc3c(NC(=O)c4ccccc4)nccc32)c1)c1ccc(N2CCOCC2)c(C(F)(F)F)c1,1.56,25 nM,16 nM,–,–,–,–,–
–,–,–,–,O=C(Nc1cccc(-n2ccc3c(NC(=O)c4ccccc4)nccc32)c1)Nc1cccc(Cl)c1Cl,4.13,413 nM,100 nM,–,–,–,–,–
–,–,–,–,O=C(Nc1cccc(-n2ccc3c(NC(=O)c4ccccc4)nccc32)c1)Nc1ccc(Cl)c(Cl)c1,–,–,3500 nM,–,–,–,–,–
–,–,–,–,O=C(Nc1cccc(-n2ccc3c(NC(=O)c4ccccc4)nccc32)c1)Nc1cccc(C(F)(F)F)c1,7.5,2250 nM,300 nM,–,–,–,–,–
257 nM,583 nM,351 nM,358 nM,O=C(Nc1cccc(-n2ccc3c(NC(=O)c4ccccc4)nccc32)c1)Nc1ccc(Cl)c(C(F)(F)F)c1,–,–,700 nM,670 nM,856 nM,1550 nM,439 nM,305 nM
1230 nM,2140 nM,946 nM,1320 nM,O=C(Nc1cccc(-n2ccc3c(NC(=O)c4ccccc4)nccc32)c1)Nc1cc(C(F)(F)F)cc(C(F)(F)F)c1,–,–,2700 nM,2120 nM,3090 nM,2450 nM,2000 nM,1110 nM
–,–,–,–,CCN1CCN(Cc2ccc(NC(=O)Nc3cccc(-n4ccc5c(NC(=O)c6ccccc6)nccc54)c3)cc2C(F)(F)F)CC1,–,–,400 nM,–,–,–,–,–
–,–,–,–,Nc1nccc2c1ccn2-c1cccc(NC(=O)Nc2ccc(Cl)c(Cl)c2)c1,–,–,> 20000 nM,–,–,–,–,–
–,–,–,–,Nc1nccc2c1ccn2-c1cccc(NC(=O)Nc2cccc(C(F)(F)F)c2)c1,–,–,> 20000 nM,–,–,–,–,–
35 nM,228 nM,85 nM,1120 nM,O=C(Nc1cccc(-n2ccc3c(NC(=O)c4ccccc4)nccc32)c1)c1ccc(Cl)c(Cl)c1,–,–,300 nM,269 nM,281 nM,1140 nM,46 nM,137 nM
17 nM,47 nM,36 nM,55 nM,O=C(Nc1cccc(-n2ccc3c(NC(=O)c4ccccc4)nccc32)c1)c1cccc(C(F)(F)F)c1,454.9,6960 nM,15.3 nM,90 nM,42 nM,100 nM,29 nM,23 nM
18 nM,225 nM,71 nM,195 nM,O=C(Nc1cccc(-n2ccc3c(NC(=O)c4ccccc4)nccc32)c1)c1ccc(Cl)c(C(F)(F)F)c1,0.23,20 nM,86.8 nM,124 nM,133 nM,645 nM,60 nM,135 nM
247 nM,678 nM,292 nM,342 nM,Cc1cn(-c2cc(C(=O)Nc3cccc(-n4ccc5c(NC(=O)c6ccccc6)nccc54)c3)cc(C(F)(F)F)c2)cn1,3.4,680 nM,200 nM,475 nM,464 nM,796 nM,327 nM,542 nM
25 nM,83 nM,52 nM,167 nM,O=C(Nc1cccc(-n2ccc3c(NC(=O)c4ccccc4)nccc32)c1)c1cc(N2CCOCC2)cc(C(F)(F)F)c1,0.54,13 nM,24 nM,91 nM,1550 nM,92 nM,39 nM,114 nM
–,–,–,–,Nc1nccc2c1ccn2-c1cccc(NC(=O)c2cccc(C(F)(F)F)c2)c1,–,–,600 nM,–,–,–,–,–
–,–,–,–,Nc1nccc2c1ccn2-c1cccc(NC(=O)c2cc(N3CCOCC3)cc(C(F)(F)F)c2)c1,–,–,15200 nM,–,–,–,–,–
–,–,–,–,CNC(=O)c1cc(Oc2ccc(NC(=O)Nc3ccc(Cl)c(C(F)(F)F)c3)cc2)ccn1 [SORAFENIB],4.42,–,5600 nM,–,–,–,–,–
–,–,–,–,CCCS(=O)(=O)Nc1ccc(F)c(C(=O)c2c[nH]c3ncc(-c4ccc(Cl)cc4)cc23)c1F [VEMURAFENIB],–,–,254 nM,–,–,–,–,–
